One test deals with HEK-293 cells. The test can be described thus: HEK-293 Cytotoxicity Assay (CellTiter-Glo). It counts as cell-based. The conditions noted are these: Homo sapiens, HEK293, 72 h incubation, CellTiter-Glo luminescence. The procedure, abridged: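 HEK-293 cells treated 72 h with 8 concentrations (4-fold dilutions, 0.2% DMSO final). Viability read by CellTiter-Glo luminescence; IC50 from four-parameter logistic fit of % inhibition.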

In a further test the target is T1, BTK (Homo sapiens, UniProt Q06187).
T1 construct: High control=Cell group with added DMSO and without compound, indicating microplate readings without BTK degradation; endogenous in cells; host or cells: TMD-8 cells
T1 sequence (Q06187 whole entry): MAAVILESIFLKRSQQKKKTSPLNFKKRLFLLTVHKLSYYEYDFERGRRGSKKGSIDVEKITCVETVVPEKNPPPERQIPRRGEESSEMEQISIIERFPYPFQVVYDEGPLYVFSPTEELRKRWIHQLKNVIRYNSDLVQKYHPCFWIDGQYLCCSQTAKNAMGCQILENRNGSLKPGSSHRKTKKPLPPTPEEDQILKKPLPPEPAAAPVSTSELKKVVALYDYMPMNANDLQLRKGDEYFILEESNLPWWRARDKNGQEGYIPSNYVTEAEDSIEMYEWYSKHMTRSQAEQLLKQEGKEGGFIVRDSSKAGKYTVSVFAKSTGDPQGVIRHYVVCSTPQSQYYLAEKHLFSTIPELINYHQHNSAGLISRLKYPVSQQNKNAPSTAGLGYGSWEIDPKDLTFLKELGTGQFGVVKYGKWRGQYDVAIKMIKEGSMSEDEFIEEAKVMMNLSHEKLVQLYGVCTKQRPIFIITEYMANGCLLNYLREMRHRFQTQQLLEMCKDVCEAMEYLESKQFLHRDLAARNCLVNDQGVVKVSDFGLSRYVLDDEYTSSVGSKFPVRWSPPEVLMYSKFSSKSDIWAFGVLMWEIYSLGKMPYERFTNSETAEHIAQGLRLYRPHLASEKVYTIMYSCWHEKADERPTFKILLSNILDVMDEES
The test can be described thus: Cell Degradation: BTK degradation in TMD-8 cells, HTRF assay. The test is classed as cell-based. The conditions noted are these: 6 h treatment, IC50 (DC50) of BTK degradation. The procedure, abridged:
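TMD-8 cells treated 6 h with 8-dose 6-fold dilutions in 0.2% DMSO, then lysed and BTK quantified by HTRF (665/620 nm). Degradation % normalised to high/low controls; DC50 from four-parameter fit, Dmax as maximal degradation.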

Usually pIC50 stands for −log10 of the IC50, conventionally taken in molar units. A word on the DC50: it is the concentration at which degradation of the target reaches its halfway point.

Structures are written as SMILES. pIC50: −log10 of the molar value.

As for `Cc1cc(-c2ncnc3[nH]c(-c4ccc(N5CCN(CC6CCN(c7ccc(N8CCC(=O)NC8=O)cc7)CC6)CC5)cn4)cc23)ccc1[C@@H](C)NC(=O)c1noc(C(C)(C)C)n1` [Example 133, (R)-5-(tert-butyl)-N-(1-(4-(6-(5-(4-((1-(4-(2,4-dioxotetrahydropyrimidin-1(2H)-yl)phenyl)piperidin-4-yl)methyl)piperazin-1-yl)pyridin-2-yl)-7H-pyrrolo[2,3-d]pyrimidin-4-yl)-2-methylphenyl)ethyl)-1,2,4-oxadiazole-3-carboxamide], the pIC50 in the test with HEK-293 cells was less than 5.00. Also, on BTK, half-maximal degradation (DC50) was put at 0.8 nM.
In the test on HEK-293 cells, `Cc1cc(-c2ncnc3[nH]c(-c4ccc(N5CCN(CC6CCN(c7ccc(N8CCC(=O)NC8=O)cc7)CC6)CC5)cn4)cc23)c(F)cc1[C@@H](C)NC(=O)c1noc(C(C)(C)C)n1` [Example 134, (R)-5-(tert-butyl)-N-(1-(4-(6-(5-(4-((1-(4-(2,4-dioxotetrahydropyrimidin-1(2H)-yl)phenyl)piperidin-4-yl)methyl)piperazin-1-yl)pyridin-2-yl)-7H-pyrrolo[2,3-d]pyrimidin-4-yl)-5-fluoro-2-methylphenyl)ethyl)-1,2,4-oxadiazole-3-carboxamide] showed a negative-log IC50 (pIC50) of less than 5.00. The same compound had a DC50 on BTK of 0.54 nM.
The compound `C[C@@H](NC(=O)c1noc(C(C)(C)C)n1)c1ccc(-c2ncnc3[nH]c(-c4ccc(N5CCN(CC6CCN(c7ccc(N8CCC(=O)NC8=O)cc7)CC6)CC5)cn4)cc23)cc1CO` [Example 136, (R)-5-(tert-butyl)-N-(1-(4-(6-(5-(4-((1-(4-(2,4-dioxotetrahydropyrimidin-1(2H)-yl)phenyl)piperidin-4-yl)methyl)piperazin-1-yl)pyridin-2-yl)-7H-pyrrolo[2,3-d]pyrimidin-4-yl)-2-(hydroxymethyl)phenyl)ethyl)-1,2,4-oxadiazole-3-carboxamide] had a pIC50 in the test on HEK-293 cells of less than 5.00. The compound further showed a DC50 at BTK of 0.17 nM.
For the compound `Cc1cc(N2CCC(CN3CCN(c4ccc(-c5cc6c(-c7ccc([C@@H](C)NC(=O)c8noc(C(C)(C)C)n8)c(CO)c7)ncnc6[nH]5)nc4)CC3)CC2)ccc1N1CCC(=O)NC1=O` [Example 137, (R)-5-(tert-butyl)-N-(1-(4-(6-(5-(4-((1-(4-(2,4-dioxotetrahydropyrimidin-1(2H)-yl)-3-methylphenyl)piperidin-4-yl)methyl)piperazin-1-yl)pyridin-2-yl)-7H-pyrrolo[2,3-d]pyrimidin-4-yl)-2-(hydroxymethyl)phenyl)ethyl)-1,2,4-oxadiazole-3-carboxamide], the pIC50 in the test on HEK-293 cells is less than 5.00. On BTK, the DC50 turned out to be 0.23 nM.
On to `Cc1nn(C2CCN(CC3CCN(c4ccc(N5CCC(=O)NC5=O)cc4)CC3)CC2)c(C)c1-c1cc2c(-c3ccc([C@@H](C)NC(=O)c4nc(C(C)(C)C)no4)c(CO)c3)ncnc2[nH]1` [Example 138, (R)-3-(tert-butyl)-N-(1-(4-(6-(1-(1-((1-(4-(2,4-dioxotetrahydropyrimidin-1(2H)-yl)phenyl)piperidin-4-yl)methyl)piperidin-4-yl)-3,5-dimethyl-1H-pyrazol-4-yl)-7H-pyrrolo[2,3-d]pyrimidin-4-yl)-2-(hydroxymethyl)phenyl)ethyl)-1,2,4-oxadiazole-5-carboxamide], for which the negative logarithm of the IC50 (pIC50) in the test on HEK-293 cells was 5.73. It took 0.29 nM to reach half-maximal degradation at BTK (DC50).
Taken in the same sequence, the figures for `Cc1nn(C2CCN(CC3CCN(c4ccc(N5CCC(=O)NC5=O)cc4)CC3)CC2)c(C)c1-c1cc2c(-c3cc(CO)c([C@@H](C)NC(=O)c4nc(C(C)(C)C)no4)cc3F)ncnc2[nH]1` [Example 139, (R)-3-(tert-butyl)-N-(1-(4-(6-(1-(1-((1-(4-(2,4-dioxotetrahydropyrimidin-1(2H)-yl)phenyl)piperidin-4-yl)methyl)piperidin-4-yl)-3,5-dimethyl-1H-pyrazol-4-yl)-7H-pyrrolo[2,3-d]pyrimidin-4-yl)-5-fluoro-2-(hydroxymethyl)phenyl)ethyl)-1,2,4-oxadiazole-5-carboxamide] were less than 5.00 and 0.5 nM.
Taken in the same sequence, the figures for `Cc1c([C@@H](C)NC(=O)c2noc(C(C)(C)C)n2)ccc(-c2ncnc3[nH]c(-c4ccc(N5CCN(CC6CCN(c7ccc(N8CCC(=O)NC8=O)cc7)CC6)CC5)nc4)cc23)c1F` [Example 140, (R)-5-(tert-butyl)-N-(1-(4-(6-(6-(4-((1-(4-(2,4-dioxotetrahydropyrimidin-1(2H)-yl)phenyl)piperidin-4-yl)methyl)piperazin-1-yl)pyridin-3-yl)-7H-pyrrolo[2,3-d]pyrimidin-4-yl)-3-fluoro-2-methylphenyl)ethyl)-1,2,4-oxadiazole-3-carboxamide] were less than 5.00 and 1.24 nM.
Taken in the same sequence, the figures for `Cc1cc(N2CCC(CN3CCN(c4ccc(-c5cc6c(-c7ccc([C@@H](C)NC(=O)c8noc(C(C)(C)C)n8)c(C)c7F)ncnc6[nH]5)cn4)CC3)CC2)ccc1N1CCC(=O)NC1=O` [Example 141, (R)-5-(tert-butyl)-N-(1-(4-(6-(6-(4-((1-(4-(2,4-dioxotetrahydropyrimidin-1(2H)-yl)-3-methylphenyl)piperidin-4-yl)methyl)piperazin-1-yl)pyridin-3-yl)-7H-pyrrolo[2,3-d]pyrimidin-4-yl)-3-fluoro-2-methylphenyl)ethyl)-1,2,4-oxadiazole-3-carboxamide] were less than 5.00 and 1.23 nM.
In the test on HEK-293 cells, `Cc1cc(-c2ncnc3[nH]c(-c4ccc(N5CCN(CC6CCN(c7ccc(N8CCC(=O)NC8=O)cc7)CC6)CC5)nc4)c(F)c23)ccc1[C@@H](C)NC(=O)c1nc(C(C)(C)C)no1` [Example 142, (R)-3-(tert-butyl)-N-(1-(4-(6-(6-(4-((1-(4-(2,4-dioxotetrahydropyrimidin-1(2H)-yl)phenyl)piperidin-4-yl)methyl)piperazin-1-yl)pyridin-3-yl)-5-fluoro-7H-pyrrolo[2,3-d]pyrimidin-4-yl)-2-methylphenyl)ethyl)-1,2,4-oxadiazole-5-carboxamide] showed a pIC50 of less than 5.00. The same compound had a 50% degradation concentration (DC50) on BTK of 2.99 nM.
As for `Cc1cc(-c2ncnc3[nH]c(-c4ccc(N5CCN(CC6CCN(c7ccc(C8CCC(=O)NC8=O)cc7)C6)CC5)cc4)cc23)ccc1[C@@H](C)NC(=O)c1nc(C(C)(C)C)no1` (stereo partly drawn) [Example 143, 3-(tert-butyl)-N-((1R)-1-(4-(6-(4-(4-((1-(4-(2,6-dioxopiperidin-3-yl)phenyl)pyrrolidin-3-yl)methyl)piperazin-1-yl)phenyl)-7H-pyrrolo[2,3-d]pyrimidin-4-yl)-2-methylphenyl)ethyl)-1,2,4-oxadiazole-5-carboxamide], the pIC50 in the test on HEK-293 cells was less than 5.00. Half-maximal degradation at BTK (DC50) was put at 8.42 nM.
Taken in the same sequence, the figures for `C[C@@H](NC(=O)c1noc(C(C)(C)C)n1)c1ccc(-c2ncnc3[nH]c(-c4ccc(N5CCN(CC6CCN(c7ccc(N8CCC(=O)NC8=O)cc7)CC6)CC5)nc4)cc23)cc1CO` [Example 144, (R)-5-(tert-butyl)-N-(1-(4-(6-(6-(4-((1-(4-(2,4-dioxotetrahydropyrimidin-1(2H)-yl)phenyl)piperidin-4-yl)methyl)piperazin-1-yl)pyridin-3-yl)-7H-pyrrolo[2,3-d]pyrimidin-4-yl)-2-(hydroxymethyl)phenyl)ethyl)-1,2,4-oxadiazole-3-carboxamide] were less than 5.00 and 0.26 nM.
Taken in the same sequence, the figures for `Cc1cc(N2CCC(CN3CCN(c4ccc(-c5cc6c(-c7ccc([C@@H](C)NC(=O)c8noc(C(C)(C)C)n8)c(CO)c7)ncnc6[nH]5)cn4)CC3)CC2)ccc1N1CCC(=O)NC1=O` [Example 145, (R)-5-(tert-butyl)-N-(1-(4-(6-(6-(4-((1-(4-(2,4-dioxotetrahydropyrimidin-1(2H)-yl)-3-methylphenyl)piperidin-4-yl)methyl)piperazin-1-yl)pyridin-3-yl)-7H-pyrrolo[2,3-d]pyrimidin-4-yl)-2-(hydroxymethyl)phenyl)ethyl)-1,2,4-oxadiazole-3-carboxamide] were less than 5.00 and 0.27 nM.
Taken in the same sequence, the figures for `Cc1cc(-c2ncnc3[nH]c(-c4ccc(N5CCN(CC6CCN(c7ccc(N8CCC(=O)N(C)C8=O)cc7)CC6)CC5)nc4)cc23)ccc1[C@@H](C)NC(=O)c1nc(C(C)(C)C)no1` [Example 146, (R)-3-(tert-butyl)-N-(1-(2-methyl-4-(6-(6-(4-((1-(4-(3-methyl-2,4-dioxotetrahydropyrimidin-1(2H)-yl)phenyl)piperidin-4-yl)methyl)piperazin-1-yl)pyridin-3-yl)-7H-pyrrolo[2,3-d]pyrimidin-4-yl)phenyl)ethyl)-1,2,4-oxadiazole-5-carboxamide] were less than 5.00 and more than 2000 nM.
Turning to `Cc1cc(-c2ncnc3[nH]c(-c4ccc(N5CCN(CC6CCN(c7ccc(N8CCC(=O)NC8=O)cc7)CC6)CC5)cn4)cc23)ccc1[C@H](C)NC(=O)c1nc(C(C)(C)C)no1` [Example 147, (S)-3-(tert-butyl)-N-(1-(4-(6-(5-(4-((1-(4-(2,4-dioxotetrahydropyrimidin-1(2H)-yl)phenyl)piperidin-4-yl)methyl)piperazin-1-yl)pyridin-2-yl)-7H-pyrrolo[2,3-d]pyrimidin-4-yl)-2-methylphenyl)ethyl)-1,2,4-oxadiazole-5-carboxamide], the pIC50 in the test on HEK-293 cells is less than 5.00. Besides, the 50% degradation concentration (DC50) on BTK came to 52.7 nM.
Consider `Cc1cc(-c2ncnc3[nH]c(-c4ccc(N5CCN(CC6CCN(c7ccc(N8CCC(=O)NC8=O)cc7)CC6)CC5)nc4)cc23)ccc1[C@H](C)NC(=O)c1nc(C(C)(C)C)no1` [Example 148, (S)-3-(tert-butyl)-N-(1-(4-(6-(6-(4-((1-(4-(2,4-dioxotetrahydropyrimidin-1(2H)-yl)phenyl)piperidin-4-yl)methyl)piperazin-1-yl)pyridin-3-yl)-7H-pyrrolo[2,3-d]pyrimidin-4-yl)-2-methylphenyl)ethyl)-1,2,4-oxadiazole-5-carboxamide], for which, in the test with HEK-293 cells, the negative logarithm of the IC50 (pIC50) is 6.56. It took 134 nM to reach half-maximal degradation at BTK (DC50).

The values above are taken from patent US20230167118A1, “DEGRADATION OF BRUTON'S TYROSINE KINASE (BTK) BY CONJUGATION OF BTK INIDBITORS WITH E3 LIGASE LIGAND AND METHODS OF USE” (BEIGENE, LTD., priority 2020, published 2023).
